Test results from patent US10143681B2, “Factor XIa inhibitors” (MERCK SHARP & DOHME CORP., priority 2016, dated 2018).

Biological target: human Factor XIa (Homo sapiens (Human), UniProt P03951)
Test: Factor XIa Assay
Type: biochemical
Conditions: for IC50: human Factor XIa 0.04 nM, 30 min pre-incubation at 25° C., substrate GPR-AFC, read-out: FXIa IC50; for inhibition at 1 µM: read-out: FXIa % Inh. @ 1000 nM
Experimental: The effectiveness of a compound of the present invention as an inhibitor of Coagulation Factor XIa can be determined using a relevant purified serine protease, and an appropriate synthetic substrate. The rate of hydrolysis of the chromogenic or fluorogenic substrate by the relevant serine protease was measured both in the absence and presence of compounds of the present invention. Assays were conducted at room temperature or at 37° C. […] A decrease in the rate of fluorescence change in the presence of inhibitor is indicative of enzyme inhibition. Such methods are known to one skilled in the art. The results of this assay are expressed as the half-maximal inhibitory concentrations (IC50), or the inhibitory constant, Ki.
Compounds were pre-incubated for 30 minutes at 25° C. with human (0.04 nM) Factor XIa in 50 mM HEPES buffer with 150 mM sodium chloride, 5 mM calcium chloride, 0.1% PEG 8000, pH 7.4. Factor XIa enzymatic activity was determined by addition of the substrate glycine-proline-arginine-7-amido-4-trifluoromethylcoumarin (GPR-AFC) and measurement of the fluorescence at 400/505 nm after a 60 minute incubation at 25° C. The % inhibition for each data point was calculated from the data and analyzed using the log (inhibitor) vs. response four parameters equation to determine the half-maximal inhibitory concentrations (IC50). The IC50 were converted to equilibrium inhibitory constants (Ki) using the Cheng-Prusoff equation.

human Factor XIa, sequence (P03951 388-625): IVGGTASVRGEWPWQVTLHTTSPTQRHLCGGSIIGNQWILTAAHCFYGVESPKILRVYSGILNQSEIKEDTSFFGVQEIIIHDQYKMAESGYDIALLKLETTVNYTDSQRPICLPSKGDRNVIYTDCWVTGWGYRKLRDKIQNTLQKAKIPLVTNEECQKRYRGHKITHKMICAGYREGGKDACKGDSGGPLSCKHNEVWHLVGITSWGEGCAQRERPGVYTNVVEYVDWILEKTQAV
human Factor XIa, sequence (P03951 19-387 partner): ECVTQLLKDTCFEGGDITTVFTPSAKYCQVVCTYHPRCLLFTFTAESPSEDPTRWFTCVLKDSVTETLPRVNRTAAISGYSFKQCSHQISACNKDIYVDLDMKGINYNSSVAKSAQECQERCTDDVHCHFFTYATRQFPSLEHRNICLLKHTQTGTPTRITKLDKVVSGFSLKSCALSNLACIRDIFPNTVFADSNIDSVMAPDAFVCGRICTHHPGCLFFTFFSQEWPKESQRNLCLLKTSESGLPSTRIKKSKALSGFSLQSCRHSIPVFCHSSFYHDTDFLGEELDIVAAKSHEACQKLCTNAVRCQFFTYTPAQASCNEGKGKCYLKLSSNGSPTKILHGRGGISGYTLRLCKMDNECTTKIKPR

SMILES	IC50 [nM]	inhibition at 1 µM (@ 1000 nM compound) [%]	FXIa % Inh. @ 1000 nM (@ 1000 nM compound) [%]
CC(C1CC1)C(C(=O)Nc1ccc(C(=O)O)cc1)c1ccc(-c2c(OC(F)F)ccc(Cl)c2F)c[n+]1[O-] (single isomer, unassigned) [Example 57, 2-(1-((4-carboxyphenyl)amino)-3-cyclopropyl-1-oxobutan-2-yl)-5-(3-chloro-6-(difluoromethoxy)-2-fluorophenyl)pyridine 1-oxide]	> 1000	48	
COc1ccc(Cl)c(F)c1-c1ccc(C(CC2CC2)C(=O)Nc2ccc(C(=O)O)cc2)[n+]([O-])c1 (single isomer, unassigned) [Example 10, (S)- or (R)-4-({2-[5-(3-chloro-2-fluoro-6-methoxyphenyl)-1-oxidopyridin-2-yl]-3-cyclopropylpropanoyl}amino) benzoic acid]	> 1000	13	
O=C(O)c1ccc(NC(=O)[C@H](CC2CC2)c2ccc(-c3c(OC(F)F)ccc(Cl)c3F)c[n+]2[O-])cc1 (single isomer, unassigned) [Example 1]		47	
O=C(O)c1ccc(NC(=O)[C@@H](CC2CC2)c2ccc(-c3c(C(F)F)ccc(Cl)c3F)c[n+]2[O-])cc1 (mixture of isomers) [Example 22, (S)- and (R)-2-(1-((4-carboxyphenyl)amino)-3-cyclopropyl-1-oxopropan-2-yl)-5-(3-chloro-6-(difluoromethyl)-2-fluorophenyl)pyridine 1-oxide]	240		
CC(C1CC1)C(C(=O)Nc1ccc(C(=O)O)cc1)c1ccc(-c2c(OC(F)F)ccc(Cl)c2F)c[n+]1[O-] (single isomer, unassigned) [Example 59, 2-(1-((4-carboxyphenyl)amino)-3-cyclopropyl-1-oxobutan-2-yl)-5-(3-chloro-6-(difluoromethoxy)-2-fluorophenyl)pyridine 1-oxide]	286		
O=C(O)c1ccc(NC(=O)C(CC2CC2)c2ccc(-c3cc(Cl)ccc3C(F)(F)F)c[n+]2[O-])cc1 (single isomer, unassigned) [Example 24, (S)- or (R)-2-(1-((4-carboxyphenyl)amino)-3-cyclopropyl-1-oxopropan-2-yl)-5-(5-chloro-2-(trifluoromethyl)phenyl)pyridine 1-oxide]	> 1000	33	
C[C@]1(O)CC[C@H](CC(C(=O)Nc2ccc(C(=O)O)cc2)c2ccc(-c3c(OC(F)F)ccc(Cl)c3F)c[n+]2[O-])CC1 (single isomer, unassigned) [Example 42, 2-(1-((4-carboxyphenyl)amino)-3-((1r,4r)-4-hydroxy-4-methylcyclohexyl)-1-oxopropan-2-yl)-5-(3-chloro-6-(difluoromethoxy)-2-fluorophenyl)pyridine 1-oxide]	227		
CC1CCC1CC(C(=O)Nc1ccc(C(=O)O)cc1)c1ccc(-c2c(OC(F)F)ccc(Cl)c2F)c[n+]1[O-] (single isomer, unassigned) [Example 103, 2-(1-((4-carboxyphenyl)amino)-3-(2-methylcyclobutyl)-1-oxopropan-2-yl)-5-(3-chloro-6-(difluoromethoxy)-2-fluorophenyl)pyridine 1-oxide]	153		
C[C@]1(O)CC[C@@H](CC(C(=O)Nc2ccc(C(=O)O)cc2)c2ccc(-c3c(OC(F)F)ccc(Cl)c3F)c[n+]2[O-])CC1 (single isomer, unassigned) [Example 41, 2-(1-((4-carboxyphenyl)amino)-3-((1s,4s)-4-hydroxy-4-methylcyclohexyl)-1-oxopropan-2-yl)-5-(3-chloro-6-(difluoromethoxy)-2-fluorophenyl)pyridine 1-oxide]	> 1000	49	
CC1CC1C[C@H](C(=O)Nc1ccc(C(=O)O)cc1)c1ccc(-c2c(C(F)F)ccc(Cl)c2F)c[n+]1[O-] (single isomer, unassigned) [Example 61]	55		
COC(=O)c1ccc(NC(=O)C(CC2CC2)c2ccc(-c3c(C(F)F)ccc(Cl)c3F)c[n+]2[O-])cc1 (single isomer, unassigned) [Example 113, 5-(3-chloro-6-(difluoromethyl)-2-fluorophenyl)-2-(3-cyclopropyl-1-((4-(methoxycarbonyl)phenyl)amino)-1-oxopropan-2-yl)pyridine 1-oxide]	1000		6
COc1ccc(Cl)c(F)c1-c1ccc(C(CC2CC2)C(=O)Nc2ccc(C(=O)O)cc2)[n+]([O-])c1 (single isomer, unassigned) [Example 11, (R)- or (S)-4-({2-[5-(3-chloro-2-fluoro-6-methoxyphenyl)-1-oxidopyridin-2-yl]-3-cyclopropylpropanoyl}amino) benzoic acid]	36		

The next lines start with the values.

IC50 [nM]	inhibition at 1 µM (@ 1000 nM compound) [%]	FXIa % Inh. @ 1000 nM (@ 1000 nM compound) [%]	SMILES
484			O=C(O)c1ccc(NC(=O)C(CC2CC(F)C2)c2ccc(-c3c(C(F)F)ccc(Cl)c3F)c[n+]2[O-])cc1 (single isomer, unassigned) [Example 80, 2-(1-((4-carboxyphenyl)amino)-3-(3-fluorocyclobutyl)-1-oxopropan-2-yl)-5-(3-chloro-6-(difluoromethyl)-2-fluorophenyl)pyridine 1-oxide]
	47		O=C(O)c1ccc(NC(=O)C(CC2CC(F)(F)C2)c2ccc(-c3c(OC(F)F)ccc(Cl)c3F)c[n+]2[O-])cc1 (racemic) [Example 49, (S)- and (R)-2-(1-((4-carboxyphenyl)amino)-3-(3,3-difluorocyclobutyl)-1-oxopropan-2-yl)-5-(3-chloro-6-(difluoromethoxy)-2-fluorophenyl)pyridine 1-oxide]
83			COC(=O)c1ccc(NC(=O)C(CC2CCC2)c2ccc(-c3c(C(F)F)ccc(Cl)c3F)c[n+]2[O-])cc1 (single isomer, unassigned) [Example 21, (R)- or (S)-methyl 4-[(2-{5-[3-chloro-6-(difluoromethyl)-2-fluorophenyl]-1-oxidopyridin-2-yl}-3-cyclobutylpropanoyl)amino]benzoate]
128			C[C@]1(O)CC[C@H](CC(C(=O)Nc2ccc(C(=O)O)cc2)c2ccc(-c3c(C(F)F)ccc(Cl)c3F)c[n+]2[O-])CC1 (single isomer, unassigned) [Example 46, 2-(1-((4-carboxyphenyl)amino)-3-((1r,4r)-4-hydroxy-4-methylcyclohexyl)-1-oxopropan-2-yl)-5-(3-chloro-6-(difluoromethyl)-2-fluorophenyl)pyridine 1-oxide]
1000	37		CC1CCC1CC(C(=O)Nc1ccc(C(=O)O)cc1)c1ccc(-c2c(OC(F)F)ccc(Cl)c2F)c[n+]1[O-] (single isomer, unassigned) [Example 104, 2-(1-((4-carboxyphenyl)amino)-3-(2-methylcyclobutyl)-1-oxopropan-2-yl)-5-(3-chloro-6-(difluoromethoxy)-2-fluorophenyl)pyridine 1-oxide]
	0		CCOC(=O)c1ccc(NC(=O)C(CC2CC2)c2ccc(-c3c(C(F)F)ccc(Cl)c3F)c[n+]2[O-])cc1 (single isomer, unassigned) [Example 115, 5-(3-chloro-6-(difluoromethyl)-2-fluorophenyl)-2-(3-cyclopropyl-1-((4-(ethoxycarbonyl)phenyl)amino)-1-oxopropan-2-yl)pyridine 1-oxide]
11			Cc1cc(C(CC2CC2)C(=O)Nc2ccc(C(=O)O)cc2)[n+]([O-])cc1-c1c(OC(F)F)ccc(Cl)c1F [Example 67, (S)- and (R)-2-(1-((4-carboxyphenyl)amino)-3-cyclopropyl-1-oxopropan-2-yl)-5-(3-chloro-6-(difluoromethoxy)-2-fluorophenyl)-4-methylpyridine 1-oxide]
